{
  "source": "paper PMC4076210",
  "about": "“Discovery of Novel AKT Inhibitors with Enhanced Anti-Tumor Effects in Combination with the MEK Inhibitor” (PLoS ONE, 2014)",
  "test_in_all_cases": "Kinase panel",
  "format_in_all_cases": "biochemical",
  "key": {"DYRK2(h)": {"target": "T1, DYRK2(h) (Homo sapiens, UniProt Q92630)", "T1 construct": "purchased Millipore KinaseProfiler", "T1 sequence (Q92630 1-601)": "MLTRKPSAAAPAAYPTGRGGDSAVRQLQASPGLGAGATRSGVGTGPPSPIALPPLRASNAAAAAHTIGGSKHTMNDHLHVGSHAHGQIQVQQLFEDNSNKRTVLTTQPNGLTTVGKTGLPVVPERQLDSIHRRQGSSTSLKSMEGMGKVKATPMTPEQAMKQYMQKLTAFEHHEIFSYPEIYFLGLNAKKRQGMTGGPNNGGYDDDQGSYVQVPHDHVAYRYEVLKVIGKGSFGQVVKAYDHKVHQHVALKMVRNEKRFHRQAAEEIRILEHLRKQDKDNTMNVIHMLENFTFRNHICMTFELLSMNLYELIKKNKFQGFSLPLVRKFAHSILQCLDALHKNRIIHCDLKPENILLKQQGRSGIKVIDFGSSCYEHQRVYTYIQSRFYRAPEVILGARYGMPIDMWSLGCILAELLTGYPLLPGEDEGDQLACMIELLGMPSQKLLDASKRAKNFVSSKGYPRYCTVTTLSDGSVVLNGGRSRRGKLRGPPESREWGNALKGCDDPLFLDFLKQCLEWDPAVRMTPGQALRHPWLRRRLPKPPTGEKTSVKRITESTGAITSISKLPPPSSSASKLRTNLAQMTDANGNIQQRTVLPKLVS"}, "Rsk3(h)": {"target": "T2, Rsk3(h) (Homo sapiens, UniProt Q15349)", "T2 construct": "purchased Millipore KinaseProfiler"}, "MARK1(h)": {"target": "T3, MARK1(h) (Homo sapiens, UniProt Q9P0L2)", "T3 construct": "purchased Millipore KinaseProfiler"}, "BTK(h)": {"target": "T4, BTK(h) (Homo sapiens, UniProt Q06187)", "T4 construct": "purchased Millipore KinaseProfiler"}, "PDK1(h)": {"target": "T5, PDK1(h) (Homo sapiens, UniProt O15530)", "T5 construct": "purchased Millipore KinaseProfiler", "T5 sequence (O15530 1-556)": "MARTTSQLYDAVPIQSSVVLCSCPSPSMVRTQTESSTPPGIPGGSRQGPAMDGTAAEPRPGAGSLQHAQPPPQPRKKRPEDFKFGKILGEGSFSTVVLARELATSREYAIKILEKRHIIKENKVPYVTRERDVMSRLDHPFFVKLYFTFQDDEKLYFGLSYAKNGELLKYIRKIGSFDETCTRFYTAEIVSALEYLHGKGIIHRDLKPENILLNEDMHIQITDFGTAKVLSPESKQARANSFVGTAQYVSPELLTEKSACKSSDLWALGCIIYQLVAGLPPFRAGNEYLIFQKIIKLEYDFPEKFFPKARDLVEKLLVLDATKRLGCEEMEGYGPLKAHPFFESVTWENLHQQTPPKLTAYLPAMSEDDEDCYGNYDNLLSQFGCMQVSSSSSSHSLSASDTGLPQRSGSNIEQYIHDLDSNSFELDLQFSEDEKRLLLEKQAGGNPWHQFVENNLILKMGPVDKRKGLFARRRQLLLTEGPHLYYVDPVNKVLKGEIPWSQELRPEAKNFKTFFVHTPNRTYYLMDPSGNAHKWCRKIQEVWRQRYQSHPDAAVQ"}, "FGFR1(V561M)(h)": {"target": "T6, FGFR1(V561M)(h) (Homo sapiens, UniProt P11362, V561M)", "T6 construct": "purchased Millipore KinaseProfiler", "T6 sequence (P11362 22-822 V561M)": "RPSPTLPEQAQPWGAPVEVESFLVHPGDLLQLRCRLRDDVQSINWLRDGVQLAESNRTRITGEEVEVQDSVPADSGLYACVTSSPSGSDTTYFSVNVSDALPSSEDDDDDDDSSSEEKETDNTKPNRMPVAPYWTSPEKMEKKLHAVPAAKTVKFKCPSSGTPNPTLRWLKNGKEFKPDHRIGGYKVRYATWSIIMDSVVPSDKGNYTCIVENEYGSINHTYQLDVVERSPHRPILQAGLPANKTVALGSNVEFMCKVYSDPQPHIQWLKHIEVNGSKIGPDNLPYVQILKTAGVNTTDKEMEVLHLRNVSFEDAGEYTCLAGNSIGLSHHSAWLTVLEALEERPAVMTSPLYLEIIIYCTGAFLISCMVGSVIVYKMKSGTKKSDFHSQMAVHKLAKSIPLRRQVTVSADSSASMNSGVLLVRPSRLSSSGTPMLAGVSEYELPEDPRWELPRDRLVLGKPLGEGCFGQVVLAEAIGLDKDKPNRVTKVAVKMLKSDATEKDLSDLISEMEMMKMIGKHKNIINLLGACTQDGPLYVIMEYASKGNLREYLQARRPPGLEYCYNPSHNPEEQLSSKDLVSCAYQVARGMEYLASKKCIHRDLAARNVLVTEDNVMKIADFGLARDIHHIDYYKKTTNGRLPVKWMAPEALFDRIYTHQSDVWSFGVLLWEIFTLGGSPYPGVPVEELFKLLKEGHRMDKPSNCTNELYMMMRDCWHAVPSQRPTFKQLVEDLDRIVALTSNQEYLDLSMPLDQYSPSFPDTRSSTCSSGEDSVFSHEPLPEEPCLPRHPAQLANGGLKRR"}, "MSK2(h)": {"target": "T7, MSK2(h) (Homo sapiens, UniProt O75676)", "T7 construct": "purchased Millipore KinaseProfiler"}, "EGFR(L861Q)(h)": {"target": "T8, EGFR(L861Q)(h) (Homo sapiens, UniProt P00533, L861Q)", "T8 construct": "purchased Millipore KinaseProfiler", "T8 sequence (P00533 25-1210 L861Q)": "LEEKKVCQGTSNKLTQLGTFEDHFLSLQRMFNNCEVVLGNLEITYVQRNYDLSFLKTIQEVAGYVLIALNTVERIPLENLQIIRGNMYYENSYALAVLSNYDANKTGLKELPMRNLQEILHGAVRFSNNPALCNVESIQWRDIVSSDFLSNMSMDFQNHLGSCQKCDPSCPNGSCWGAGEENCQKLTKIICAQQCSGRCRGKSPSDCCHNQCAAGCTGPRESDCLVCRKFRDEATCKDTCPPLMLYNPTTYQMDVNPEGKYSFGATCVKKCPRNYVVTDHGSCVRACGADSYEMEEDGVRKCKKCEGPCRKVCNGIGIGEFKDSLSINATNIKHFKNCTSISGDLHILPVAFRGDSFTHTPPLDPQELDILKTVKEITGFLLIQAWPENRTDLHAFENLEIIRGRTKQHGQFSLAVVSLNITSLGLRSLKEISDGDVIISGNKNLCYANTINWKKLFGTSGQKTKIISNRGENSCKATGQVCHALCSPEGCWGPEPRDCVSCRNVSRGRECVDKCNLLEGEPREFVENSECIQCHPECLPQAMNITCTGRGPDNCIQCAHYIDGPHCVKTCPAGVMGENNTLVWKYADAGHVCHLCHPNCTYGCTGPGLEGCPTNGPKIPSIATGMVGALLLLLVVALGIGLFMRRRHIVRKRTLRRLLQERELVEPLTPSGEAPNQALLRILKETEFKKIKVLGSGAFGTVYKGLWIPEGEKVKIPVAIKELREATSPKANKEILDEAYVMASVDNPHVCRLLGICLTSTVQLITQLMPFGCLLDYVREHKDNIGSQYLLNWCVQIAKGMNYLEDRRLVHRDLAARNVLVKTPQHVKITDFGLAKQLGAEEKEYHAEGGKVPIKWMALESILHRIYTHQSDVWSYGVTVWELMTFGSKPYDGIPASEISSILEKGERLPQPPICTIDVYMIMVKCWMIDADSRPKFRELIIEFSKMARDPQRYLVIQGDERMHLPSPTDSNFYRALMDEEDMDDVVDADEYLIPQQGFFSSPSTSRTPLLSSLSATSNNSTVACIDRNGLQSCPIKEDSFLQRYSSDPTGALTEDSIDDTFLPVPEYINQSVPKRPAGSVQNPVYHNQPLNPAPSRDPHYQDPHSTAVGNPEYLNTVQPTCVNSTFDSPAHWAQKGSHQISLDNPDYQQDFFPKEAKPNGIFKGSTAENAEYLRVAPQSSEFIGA"}, "ULK2(h)": {"target": "T9, ULK2(h) (Homo sapiens, UniProt Q8IYT8)", "T9 construct": "purchased Millipore KinaseProfiler", "T9 sequence (Q8IYT8 1-1036)": "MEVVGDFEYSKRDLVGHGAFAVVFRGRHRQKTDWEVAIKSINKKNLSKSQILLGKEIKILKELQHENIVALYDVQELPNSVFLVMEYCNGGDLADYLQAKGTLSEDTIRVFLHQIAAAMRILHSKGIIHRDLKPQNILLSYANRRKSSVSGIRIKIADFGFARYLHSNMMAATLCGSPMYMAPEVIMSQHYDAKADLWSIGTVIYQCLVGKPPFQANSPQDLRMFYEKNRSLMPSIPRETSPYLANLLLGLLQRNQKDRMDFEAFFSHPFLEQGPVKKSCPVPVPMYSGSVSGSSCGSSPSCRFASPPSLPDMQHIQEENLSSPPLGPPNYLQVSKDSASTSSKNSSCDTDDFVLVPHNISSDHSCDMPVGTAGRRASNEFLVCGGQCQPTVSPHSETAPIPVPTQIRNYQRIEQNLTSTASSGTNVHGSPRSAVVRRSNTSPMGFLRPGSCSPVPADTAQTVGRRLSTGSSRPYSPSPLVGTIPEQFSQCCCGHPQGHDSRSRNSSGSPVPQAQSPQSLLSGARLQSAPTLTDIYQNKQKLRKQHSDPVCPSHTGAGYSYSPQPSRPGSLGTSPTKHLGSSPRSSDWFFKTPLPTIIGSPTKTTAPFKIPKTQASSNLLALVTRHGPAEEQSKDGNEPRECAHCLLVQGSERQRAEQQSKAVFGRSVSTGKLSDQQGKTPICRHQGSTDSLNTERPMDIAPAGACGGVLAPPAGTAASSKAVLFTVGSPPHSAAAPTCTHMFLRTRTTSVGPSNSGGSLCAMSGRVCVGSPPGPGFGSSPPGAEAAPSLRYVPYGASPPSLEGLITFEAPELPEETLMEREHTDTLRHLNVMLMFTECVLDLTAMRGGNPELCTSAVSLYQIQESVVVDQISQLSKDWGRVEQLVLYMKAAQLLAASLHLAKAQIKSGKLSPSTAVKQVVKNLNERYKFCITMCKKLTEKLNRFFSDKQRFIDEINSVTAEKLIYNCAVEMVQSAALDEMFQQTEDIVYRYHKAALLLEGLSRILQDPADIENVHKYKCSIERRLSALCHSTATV"}},
  "note": "Read-outs that look alike come from different tables or passages of the source.",
  "data": [
    {"compound": "Cn1ncc(Cl)c1-c1cc(C(=O)N[C@H](CN)Cc2cccc(F)c2)sc1Cl", "note": "[GSK2110183]", "values": [
      {"measurement": "inhibition at 0.5 µM", "setting": "DYRK2(h)", "result": 2, "unit": "%"},
      {"measurement": "inhibition at 10 µM", "setting": "DYRK2(h)", "result": 24, "unit": "%"},
      {"measurement": "inhibition at 0.5 µM", "setting": "Rsk3(h)", "result": 35, "unit": "%"},
      {"measurement": "inhibition at 10 µM", "setting": "Rsk3(h)", "result": 89, "unit": "%"},
      {"measurement": "inhibition at 0.5 µM", "setting": "MARK1(h)", "result": 26, "unit": "%"},
      {"measurement": "inhibition at 10 µM", "setting": "MARK1(h)", "result": 88, "unit": "%"},
      {"measurement": "inhibition at 0.5 µM", "setting": "BTK(h)", "result": 2, "unit": "%"},
      {"measurement": "inhibition at 10 µM", "setting": "BTK(h)", "result": 4, "unit": "%"},
      {"measurement": "inhibition at 0.5 µM", "setting": "PDK1(h)", "result": -12, "unit": "%"},
      {"measurement": "inhibition at 10 µM", "setting": "PDK1(h)", "result": -6, "unit": "%"},
      {"measurement": "inhibition at 0.5 µM", "setting": "FGFR1(V561M)(h)", "result": -4, "unit": "%"},
      {"measurement": "inhibition at 10 µM", "setting": "FGFR1(V561M)(h)", "result": 16, "unit": "%"},
      {"measurement": "inhibition at 0.5 µM", "setting": "MSK2(h)", "result": 85, "unit": "%"},
      {"measurement": "inhibition at 10 µM", "setting": "MSK2(h)", "result": 97, "unit": "%"},
      {"measurement": "inhibition at 0.5 µM", "setting": "EGFR(L861Q)(h)", "result": -4, "unit": "%"},
      {"measurement": "inhibition at 10 µM", "setting": "EGFR(L861Q)(h)", "result": 21, "unit": "%"},
      {"measurement": "inhibition at 0.5 µM", "setting": "ULK2(h)", "result": 0, "unit": "%"},
      {"measurement": "inhibition at 10 µM", "setting": "ULK2(h)", "result": 15, "unit": "%"}
    ]},
    {"compound": "Cn1ncc(Cl)c1-c1cc(C(=O)N[C@H](CN)Cc2ccc(F)c(F)c2)oc1Cl", "note": "[GSK2141795]", "values": [
      {"measurement": "inhibition at 0.5 µM", "setting": "DYRK2(h); 0.5 µM, read-out: % Inhibition", "result": 16, "unit": "%"},
      {"measurement": "inhibition at 10 µM", "setting": "DYRK2(h); 10 µM, read-out: % Inhibition", "result": 64, "unit": "%"},
      {"measurement": "inhibition at 0.5 µM", "setting": "Rsk3(h); 0.5 µM, read-out: % Inhibition", "result": 51, "unit": "%"},
      {"measurement": "inhibition at 10 µM", "setting": "Rsk3(h); 10 µM, read-out: % Inhibition", "result": 94, "unit": "%"},
      {"measurement": "inhibition at 0.5 µM", "setting": "MARK1(h); 0.5 µM, read-out: % Inhibition", "result": -11, "unit": "%"},
      {"measurement": "inhibition at 10 µM", "setting": "MARK1(h); 10 µM, read-out: % Inhibition", "result": 53, "unit": "%"},
      {"measurement": "inhibition at 0.5 µM", "setting": "BTK(h); 0.5 µM, read-out: % Inhibition", "result": 7, "unit": "%"},
      {"measurement": "inhibition at 10 µM", "setting": "BTK(h); 10 µM, read-out: % Inhibition", "result": 6, "unit": "%"},
      {"measurement": "inhibition at 0.5 µM", "setting": "PDK1(h); 0.5 µM, read-out: % Inhibition", "result": 3, "unit": "%"},
      {"measurement": "inhibition at 10 µM", "setting": "PDK1(h); 10 µM, read-out: % Inhibition", "result": 19, "unit": "%"},
      {"measurement": "inhibition at 0.5 µM", "setting": "FGFR1(V561M)(h); 0.5 µM, read-out: % Inhibition", "result": 15, "unit": "%"},
      {"measurement": "inhibition at 10 µM", "setting": "FGFR1(V561M)(h); 10 µM, read-out: % Inhibition", "result": 36, "unit": "%"},
      {"measurement": "inhibition at 0.5 µM", "setting": "MSK2(h); 0.5 µM, read-out: % Inhibition", "result": 98, "unit": "%"},
      {"measurement": "inhibition at 10 µM", "setting": "MSK2(h); 10 µM, read-out: % Inhibition", "result": 102, "unit": "%"},
      {"measurement": "inhibition at 0.5 µM", "setting": "EGFR(L861Q)(h); 0.5 µM, read-out: % Inhibition", "result": -13, "unit": "%"},
      {"measurement": "inhibition at 10 µM", "setting": "EGFR(L861Q)(h); 10 µM, read-out: % Inhibition", "result": 21, "unit": "%"},
      {"measurement": "inhibition at 0.5 µM", "setting": "ULK2(h); 0.5 µM, read-out: % Inhibition", "result": 6, "unit": "%"},
      {"measurement": "inhibition at 10 µM", "setting": "ULK2(h); 10 µM, read-out: % Inhibition", "result": 26, "unit": "%"}
    ]}
  ]
}
